Here are results for 6 compounds from US8697641B2, “4-amino-4-oxobutanoyl peptide cyclic analogues, inhibitors of viral replication” (Achillion Pharmaceuticals, Inc., priority 2008, dated 2014).

Bounds are passed on as bounds.

For one experiment, the system named is Hepatitis C replicon. Put plainly: HCV replicon assay (NPT ELISA readout) in Huh-7 replicon-containing cells. The experiment is classed as cell-based, Hepatitis C virus. The note with it: HCV replicon in Huh-7 cells, three days incubation. The essentials: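 Huh-7 cells carrying a neo-containing HCV subgenomic replicon (NS3-NS5B) were plated overnight, then exposed to compound (generally 6 concentrations, 10 to 0.03 μM) for three days at 37 °C. Replication was read as NPT level by captured ELISA; interferon alpha served as positive control.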
Background: A replicon is a self-replicating genome or part of one, used to study replication in cells.
One may read the EC50 as the concentration at which the effect is half-maximal. A high value points to lower potency in that assay. Compound `COc1ccc2c(O[C@@H]3C[C@H]4C(=O)N[C@H](C(=O)NS(=O)(=O)C5CC5)CCCCCCCCC[C@H](CC(=O)N5CCCCC5)C(=O)N4C3)cc(-c3ccccc3)nc2c1` [Compound 52, (3S,13R,17R,18aS)-N-(cyclopropylsulfonyl)-17-(7-methoxy-2-phenylquinolin-4-yloxy)-1,14-dioxo-13-(2-oxo-2-(piperidin-1-yl)ethyl) octadecahydropyrrolo [1,2-a][1,4] diazacyclohexadecine-3-carboxamide] registered a concentration for a half-maximal effect (EC50) of 1 to 10 µM.

Still in this experiment, the particulars now being: Hepatitis C virus, 72 h; HCV replicon in Huh-7 cells, three days incubation.
Regarding `COc1ccc2c(O[C@@H]3C[C@H]4C(=O)N[C@]5(C(=O)NS(=O)(=O)C6CC6)CC5/C=C\CCCCC[C@H](CC(=O)N5CCC(C(F)(F)F)CC5)C(=O)N4C3)cc(-c3cccnc3)nc2c1C` (stereo partly drawn) [Compound 131, (2R,6R,14aR,16aS,Z)-N-(cyclopropylsulfonyl)-2-(7-methoxy-8-methyl-2-(pyridin-3-yl)quinolin-4-yloxy)-5,16-dioxo-6-(2-oxo-2-(4-(trifluoromethyl)piperidin-1-yl)ethyl)-1,2,3,5,6,7,8,9,10,11, 13a,14,14a,15,16,16a-hexadecahydrocyclopropa [e]pyrrolo[1,2-a][1,4] diazacyclopentadecine-14a-carboxamide], the EC50 is less than 1 µM. On the same count and under the same terms, under `COc1ccc2c(O[C@@H]3C[C@H]4C(=O)N[C@]5(C(=O)O)C[C@H]5/C=C\CCCCC[C@H](CC(=O)N5CCCCC5)C(=O)N4C3)cc(-c3ccccc3)nc2c1` [Compound 44, (2R,6R,13aS,14aR, 16aS,Z)-2-(7-methoxy-2-phenylquinolin-4-yloxy)-5,16-dioxo-6-(2-oxo-2-(piperidin-1-yl)ethyl)-1,2,3,5,6,7,8,9,10,11, 13a,14,14a,15,16,16a-hexadecahydrocyclopropa [e]pyrrolo[1,2-a][1,4] diazacyclopentadecine-14a-carboxylic acid] stands more than 10 µM; under `O=C1N[C@]2(C(=O)NS(=O)(=O)C3CC3)C[C@H]2/C=C\CCCCC[C@H](CC(=O)N2CCCCC2)C(=O)N2C[C@H](OC(=O)N3CCc4ccccc4C3)C[C@@H]12` [Compound 112, (2R,6R,14aR, 16aS,Z)-14a-(cyclopropylsulfonyl-carbamoyl)-5,16-dioxo-6-(2-oxo-2-(piperidin-1-yl)ethyl)-1,2,3,5,6,7,8,9,10,11, 13a,14,14a,15,16,16a-hexadecahydrocyclopropa [e]pyrrolo[1,2-a][1,4] diazacyclopentadecin-2-yl 3,4-dihydroisoquinoline-2(1H)-carboxylate], less than 1 µM; under `CCOC(=O)[C@@]12C[C@H]1/C=C\CCCCC[C@H](CC(=O)OC(C)(C)C)C(=O)N1C[C@H](Oc3cc(-c4ccccc4)nc4cc(OC)ccc34)C[C@H]1C(=O)N2` [Compound 46, (2R,6R,13aS,14aR, 16aS,Z)-ethyl 6-(2-tert-butoxy-2-oxoethyl)-2-(7-methoxy-2-phenylquinolin-4-yloxy)-5,16-dioxo-1,2,3,5,6,7,8,9,10,11, 13a,14,14a,15,16,16a-hexadecahydrocyclopropa [e]pyrrolo[1,2-a][1,4] diazacyclopentadecine-14a-carboxylate], more than 10 µM. Take `COc1ccc2c(O[C@@H]3C[C@H]4C(=O)N[C@]5(C(=O)NS(=O)(=O)C6CC6)C[C@H]5/C=C\CCCCC[C@H](CC(=O)N5CC(C)CC(C)C5)C(=O)N4C3)cc(-c3ccccc3)nc2c1` (stereo partly drawn) [Compound 68, (2R,6R,13aS, 14aR,16aS,Z)-N-(cyclopropylsulfonyl)-6-(2-(3,5-dimethylpiperidin-1-yl)-2-oxoethyl)-2-(7-methoxy-2-phenylquinolin-4-yloxy)-5,16-dioxo-1,2,3,5,6,7,8,9,10,11, 13a,14,14a,15,16,16a-hexadecahydrocyclopropa [e]pyrrolo[1,2-a][1,4] diazacyclopentadecine-14a-carboxamide]: the 50% effective concentration (EC50) is less than 1 µM.
